Literature values as cited in paper PMC2857392 (Biochemistry, 2010).
pKd: −log10 of the molar value.

What was measured:
Stx1 B-subunit (Stx1B) = settings: read-out: dissociation constant (Kd) for B-subunit monomer

| Molecule | pKd (Stx1B) | pKd (Stx1 B-subunit (Stx1B)) |
| --- | --- | --- |
| globotriaosylceramide [Gb3] | 8.52 |  |
| OC[C@H]1O[C@H](O[C@@H]2[C@H](O)[C@@H](O)[C@H](O[C@H]3[C@H](O)[C@@H](O)C(O)O[C@@H]3CO)O[C@@H]2CO)[C@H](O)[C@@H](O)[C@H]1O (stereo partly drawn) [Pk trisaccharide, Galα1-4Galβ1-4Glc] | 2.32 | 3.00 to 3.30 |
